The text below walks through data of US10526291B2, “Potent dual BRD4-kinase inhibitors as cancer therapeutics” (H. Lee Moffitt Cancer Center and Research Institute, Inc., priority 2014, dated 2020).

The test deals with BRD4 (Homo sapiens, UniProt O60885). In words: Differential Scanning Fluorimetry (DSF), stability of BRD4 upon ligand binding. The note with it: for ΔTm at 4 µM: 100 μM protein, 4 μM compound and 2% DMSO; for IC50: estimated. As for the experimental part: DSF=Differential Scanning Fluorimetry; provides a measure of the increased stability of BRD4 upon ligand binding The DSF experiment was run at 100 μM protein, 4 μM compound and 2% DMSO.

Molecules are shown by their SMILES. Some results are limits rather than exact numbers.

For orientation: ΔTm means the change in melting temperature against a reference sample. Broadly, the IC50 is the midpoint of a concentration-inhibition curve. Turning to `CN1CCN(c2ccc(Nc3ncc(Cl)c(Nc4cccc(C(C)(C)C)c4)n3)cc2)CC1`, the ΔTm at 4 µM amounted to 0.12 ± 0.053 °C and the IC50 was 19800 nM.
In the case of `COc1cc(Nc2ncc(C(F)(F)F)c(Nc3ccc(N4CCN(C)CC4)cc3)n2)ccc1Cl`, the ΔTm at 4 µM was found to be 0.56 ± 0.37 °C and the IC50 is 14100 nM.
The matching figures for `CC(C)NS(=O)(=O)c1cccc(Nc2nc(Nc3ccc(N4CCN(C)CC4)cc3)ncc2Cl)c1`: 4.6 ± 0.12 °C and 630 nM.
For `CC(C)(C)NS(=O)(=O)c1cccc(Nc2nc(Nc3ccc(N4CCOCC4)cc3)ncc2Cl)c1` the same measures were -0.071 ± 0.042 °C and 22900 nM.
For `CN1CCN(c2ccc(Nc3ncc(Cl)c(Nc4cccc(S(=O)(=O)NC(C)(C)C)c4)n3)cc2)CC1`, the ΔTm at 4 µM came out at 5.7 ± 0.054 °C and the IC50 was 270 nM.
For `Cc1cnc(Nc2ccc(N3CCN(C)CC3)cc2)nc1Nc1cccc(C(C)(C)C)c1`, the ΔTm at 4 µM was 2.9 ± 0.12 °C and the IC50 was 2330 nM.
For `CC(C)NS(=O)(=O)c1cccc(Nc2nc(N3CCN(c4ccc(N)cc4)CC3)ncc2Br)c1` the same measures were 0.16 °C and 19200 nM.
Take `COc1ccc(Nc2nc(Nc3ccc(N4CCN(C)CC4)cc3)ncc2Cl)cc1OC`: the ΔTm at 4 µM is 5.1 ± 0.039 °C and the IC50 was 430 nM.
For `COc1cccc(Nc2nc(Nc3ccc(N4CCN(C)CC4)cc3)ncc2C)c1`, the ΔTm at 4 µM was determined as 3.2 ± 0.083 °C and the IC50 was 1850 nM.
For `CCOc1cccc(Nc2nc(Nc3ccc(N4CCN(C)CC4)cc3)ncc2C)c1`, the ΔTm at 4 µM is 5.4 ± 0.15 °C and the IC50 is 340 nM.
For `CC(C)Oc1cccc(Nc2nc(Nc3ccc(N4CCN(C)CC4)cc3)ncc2Cl)c1` the same measures were 4.8 ± 0.12 °C and 540 nM.
Turning to `Cc1cnc(Nc2ccc(N3CCN(C)CC3)cc2)nc1Nc1cccc(OC(C)C)c1`, the ΔTm at 4 µM was 6.6 ± 0.1 °C and the IC50 is 140 nM.
Turning to `CCOC(=O)c1cnc(Nc2ccc(N3CCN(C)CC3)cc2)nc1Nc1ccc(Cl)c(OC)c1`, the ΔTm at 4 µM was 0.24 ± 0.13 °C and the IC50 was 18000 nM.
For the compound `CCOC(=O)c1cnc(Nc2ccc(N3CCN(C)CC3)cc2)nc1Nc1cccc(S(=O)(=O)NC(C)(C)C)c1`, the ΔTm at 4 µM is -0.0056 ± 0.24 °C and the IC50 is more than 20000 nM.
As for `Cc1cnc(Nc2ccc(N3CCN(C)CC3)cc2)nc1Nc1ccc2c(c1)OCCO2`, the ΔTm at 4 µM turned out to be 4.4 ± 0.11 °C and the IC50 was 740 nM.
Take `Cc1cnc(Nc2ccc(N3CCN(C)CC3)cc2)nc1Nc1ccc2c(c1)OCO2`: the ΔTm at 4 µM stood at 0.79 ± 0.079 °C and the IC50 was 12000 nM.
As to `COc1cc(Nc2nc(Nc3ccc(N4CCN(C)CC4)cc3)ncc2Cl)cc(OC)c1Cl`, the ΔTm at 4 µM is 2 ± 0.42 °C and the IC50 is 4700 nM.
For `COc1cc(Nc2cc(C)nc(Nc3ccc(N4CCN(C)CC4)cc3)n2)ccc1Cl` the same measures were 2.6 ± 0.095 °C and 2900 nM.
The matching figures for `COc1cc(Nc2nc(Nc3ccc(N4CCN(C)CC4)cc3)ncc2C)c(OC)cc1Cl`: 0.57 ± 0.25 °C and 14000 nM.
The matching figures for `COc1cc(Nc2nc(Nc3ccc(N4CCNCC4)cc3)ncc2C)ccc1Cl`: 7.1 ± 0.15 °C and 92 nM.
On to `COc1cc(Nc2nc(Nc3ccc(N4CCN(C)CC4)cc3)ncc2Cl)cc(OC)c1`, for which the ΔTm at 4 µM amounted to 3.5 ± 0.17 °C and the IC50 is 1500 nM.
With `COc1cc(Nc2ccnc(Nc3ccc(N4CCN(C)CC4)cc3)n2)ccc1Cl`, the ΔTm at 4 µM was determined as 2.5 ± 0.069 °C and the IC50 was 3200 nM.
For `CCCc1cnc(Nc2ccc(N3CCN(C)CC3)cc2)nc1Nc1ccc(Cl)c(OC)c1` the same measures were 3.1 ± 0.075 °C and 2000 nM.
For `COc1cc(Nc2nc(Nc3ccc(N4CCN(C)CC4)cc3)ncc2C(C)C)ccc1Cl` the same measures were 1.4 ± 0.11 °C and 7400 nM.
The matching figures for `COc1cc(Nc2nc(Nc3ccc(N4CCNCC4)cc3)ncc2Br)ccc1Cl`: 4.5 ± 0.1 °C and 680 nM.
With `CCOc1cc(Nc2nc(Nc3ccc(N4CCN(C)CC4)cc3)ncc2Cl)ccc1Cl`, the ΔTm at 4 µM was found to be 3.7 ± 0.12 °C and the IC50 is 1300 nM.
As to `CCOc1cc(Nc2nc(Nc3ccc(N4CCN(C)CC4)cc3)ncc2C)ccc1Cl`, the ΔTm at 4 µM was determined as 6.4 ± 0.0066 °C and the IC50 was 160 nM.
For `Cc1cnc(Nc2ccc(N3CCN(C)CC3)cc2)nc1Nc1ccc(Cl)c(OC(C)C)c1` the same measures were 6.3 ± 0.1 °C and 170 nM.
For the compound `CN1CCN(c2ccc(Nc3nc(Nc4cccc(S(=O)(=O)NC(C)(C)C)c4)c4ccccc4n3)cc2)CC1`, the ΔTm at 4 µM is 2.6 ± 0.081 °C and the IC50 is 2900 nM.
For `Cc1cnc(Nc2ccc(N3CCN(C)CC3)cc2)nc1Nc1cccc(NS(C)(=O)=O)c1` the same measures were 4.6 ± 0.13 °C and 630 nM.
In the case of `CN1CCN(c2ccc(Nc3nc(Nc4cccc(NS(=O)(=O)C5CC5)c4)c4ccccc4n3)cc2)CC1`, the ΔTm at 4 µM was 5.8 ± 0.11 °C and the IC50 was 260 nM.
Take `Cc1cnc(Nc2ccc(N3CCN(C)CC3)cc2)nc1Nc1cccc(NC(=O)C(C)(C)C)c1`: the ΔTm at 4 µM is 3.5 ± 0.19 °C and the IC50 is 1500 nM.
The matching figures for `Cc1cnc(Nc2ccc(N3CCN(C)CC3)cc2)nc1Nc1cccc(NC(=O)C(C)C)c1`: 4.1 ± 0.12 °C and 900 nM.
For `Cc1cnc(Nc2ccc(N3CCN(C)CC3)cc2)nc1Nc1cccc(NC(=O)C2CC2)c1`, the ΔTm at 4 µM was found to be 4.6 ± 0.21 °C and the IC50 was 630 nM.
For `Cc1cnc(Nc2ccc(N3CCN(C)CC3)cc2)nc1Nc1cccc(NC(=O)NC(C)C)c1` the same measures were 2.1 ± 0.1 °C and 4300 nM.
For `CC(C)NS(=O)(=O)c1cccc(Nc2nc(Nc3ccc(N4CCN(C)CC4)cc3)nc3ccccc23)c1` the same measures were 5 ± 0.13 °C and 480 nM.
The matching figures for `CN1CCN(c2ccc(Nc3ncc(C(=O)O)c(Nc4cccc(S(=O)(=O)NC(C)(C)C)c4)n3)cc2)CC1`: -0.2 ± 0.2 °C and 25000 nM.
With `COc1cc(Nc2nc(Nc3ccc(N4CCN(C)CC4)cc3)ncc2C(=O)O)ccc1Cl`, the ΔTm at 4 µM was determined as 0.0094 ± 0.11 °C and the 50% inhibitory concentration (IC50) was 22000 nM.
As to `Cc1ccc(Nc2nc(Nc3ccc(N4CCN(C)CC4)cc3)nc3ccccc23)cc1S(=O)(=O)NC(C)(C)C`, the ΔTm at 4 µM worked out at 6.1 ± 0.032 °C and the IC50 was 200 nM.
For `Cc1ccc(Nc2nc(Nc3ccc(N4CCN(C)CC4)cc3)ncc2C)cc1S(=O)(=O)NC(C)(C)C` the same measures were 8.6 ± 0.09 °C and 30 nM.
For `CN1CCN(c2ccc(Nc3ncc(C(N)=O)c(Nc4cccc(S(=O)(=O)NC(C)(C)C)c4)n3)cc2)CC1` the same measures were 2.7 ± 0.0089 °C and 2700 nM.
`CN1CCN(c2ccc(Nc3nc4c(c(Nc5cccc(S(=O)(=O)NC(C)(C)C)c5)n3)CCC4)cc2)CC1`: the ΔTm at 4 µM was found to be 4.9 ± 0.11 °C and the IC50 is 500 nM.
Consider `CC(C)NS(=O)(=O)c1cccc(Nc2nc(Nc3ccc(N4CCN(C)CC4)cc3)nc3c2CCC3)c1`, for which the ΔTm at 4 µM is 3.8 ± 0.056 °C and the IC50 is 1200 nM.
On to `CN1CCN(c2ccc(Nc3nc4c(c(Nc5cccc(S(=O)(=O)NC6CC6)c5)n3)CCC4)cc2)CC1`, for which the ΔTm at 4 µM was found to be 4.9 ± 0.099 °C and the IC50 was 520 nM.
Consider `CC(C)NS(=O)(=O)c1cccc(Nc2nc(Nc3ccc(N4CCN(C)CC4)cc3)nc3c2COC3)c1`, for which the ΔTm at 4 µM came to 0.6 ± 0.14 °C and the IC50 is 14000 nM.
For `CC(C)S(=O)(=O)Nc1cccc(Nc2nc(Nc3ccc(N4CCN(C)CC4)cc3)nc3c2COC3)c1` the same measures were 3.9 ± 0.24 °C and 1000 nM.
For the compound `CN1CCN(c2ccc(Nc3nc4c(c(Nc5cccc(NS(=O)(=O)C6CC6)c5)n3)COC4)cc2)CC1`, the ΔTm at 4 µM was found to be 1.3 ± 0.12 °C and the IC50 was 7900 nM.
For `CN1CCN(c2ccc(Nc3nc4c(c(Nc5cccc(NS(=O)(=O)C(C)(C)C)c5)n3)COC4)cc2)CC1` the same measures were 6 ± 0.13 °C and 220 nM.
The matching figures for `CN1CCN(c2ccc(Nc3nc4c(c(Nc5cccc(NS(=O)(=O)C(C)(C)C)c5)n3)CCC4)cc2)CC1`: 6.4 ± 0.12 °C and 150 nM.
The matching figures for `CC(C)S(=O)(=O)Nc1cccc(Nc2nc(Nc3ccc(N4CCN(C)CC4)cc3)nc3c2CCC3)c1`: 4.3 ± 0.14 °C and 770 nM.
Take `CN1CCN(c2ccc(Nc3ncc(C(N)=O)c(Nc4cccc(NS(=O)(=O)C5CC5)c4)n3)cc2)CC1`: the ΔTm at 4 µM was 2.3 ± 0.073 °C and the IC50 is 3800 nM.
Consider `Cc1cnc(Nc2ccc(N3CCN(C)CC3)cc2)nc1Nc1ccc(Cl)c(NS(=O)(=O)C2CC2)c1`, for which the ΔTm at 4 µM was 7 ± 0.14 °C and the IC50 is 100 nM.
The matching figures for `CN1CCN(c2ccc(Nc3nc4c(c(Nc5ccc(Cl)c(NS(=O)(=O)C6CC6)c5)n3)CCC4)cc2)CC1`: 4.6 ± 0.05 °C and 620 nM.
Regarding `CN1CCN(c2ccc(Nc3nc4c(c(Nc5ccc(Cl)c(NS(=O)(=O)C6CC6)c5)n3)COC4)cc2)CC1`, the thermal shift (ΔTm) at 4 µM worked out at 5.4 ± 0.2 °C and the IC50 is 350 nM.
For `CN1CCN(c2ccc(Nc3ncc(F)c(Nc4cccc(NS(=O)(=O)C(C)(C)C)c4)n3)cc2)CC1` the same measures were 5.2 ± 0.15 °C and 400 nM.
Consider `CN1CCN(c2ccc(Nc3ncc(F)c(Nc4ccc(Cl)c(NS(=O)(=O)C(C)(C)C)c4)n3)cc2)CC1`, for which the ΔTm at 4 µM amounted to 7.2 ± 0.17 °C and the IC50 is 85 nM.
The matching figures for `COc1cc(C(=O)NC2CCN(C)CC2)ccc1Nc1ncc(C)c(Nc2cc(OC)c(Cl)c(OC)c2)n1`: 3 ± 0.11 °C and 2200 nM.
For `COc1cc(Nc2nc(Nc3ccc(C(=O)NC4CCN(C)CC4)cc3)ncc2C)cc(OC)c1Cl` the same measures were 5.9 ± 0.063 °C and 2300 nM.
As for `Cc1cnc(Nc2ccc(C(=O)NC3CCN(C)CC3)cc2)nc1Nc1cccc(NS(=O)(=O)C(C)(C)C)c1`, the ΔTm at 4 µM was 7.6 ± 0.047 °C and the IC50 is 62 nM.
For `Cc1cnc(Nc2ccc(N3CCN(C)CC3)cc2)nc1Nc1cccc(NS(=O)(=O)N(C)C)c1` the same measures were 3.3 ± 0.36 °C and 1800 nM.
